Source: a melting point compilation (Tetko et al.; mined from patent text by program, amines drawn as free bases though some values may be those of a salt)

melting point [°C] | SMILES
126 | O=C(CCN1CCN(c2ccccc2)CC1)NCC(=O)c1ccccc1
170 to 172 | COC(=O)N1CC(=O)Nc2cccc(F)c21
143 to 144 | Cc1nnc(NCCCOc2cccc(CN3CCCCC3)c2)n1C
85 to 87 | CCOC(=O)Oc1ccc(C(=O)OCCN2CCN(CCN3CCOCC3)CC2)cc1
252 to 254 | CC(=O)Nc1ccc(NC(=O)NC23CC4CC(CC(C4)C2)C3)cn1
169 to 170 | COc1cccc(C2COc3c(C)c(C)c(NC(=O)CC(C)(C)C)c(C)c32)c1 (stereo not drawn)
102 to 106 | OCCCc1ccc(Nc2c(-c3nnc(NCCN4CCOCC4)o3)ccc(F)c2F)c(F)c1
250 to 252 | Cc1ccc(C)c(NC(=O)CN2C(=O)C3(COc4cc5c(cc43)CCO5)c3ccccc32)c1 (stereo not drawn)
197 to 198 | CC(C)C(=O)NC1C(OCc2ccccc2)=CC=CC1(Br)[N+](=O)[O-] (stereo not drawn)
155 to 157 | COc1ccc2[nH]c(S(=O)Cc3cc(N(C)C)c(Cl)cn3)nc2c1 (stereo not drawn)
181 to 183 | CC(=O)NC1CC(=O)CC(=O)C1
302 to 303 | Cc1cccc(C)c1-n1c(C)c(C#N)c(=O)[nH]c1=O
101 to 102 | CC(=O)NC(=O)C(Cl)c1ccccc1 (stereo not drawn)
141 to 142 | COc1cc(OC)nc(C(=O)c2cccc(Cl)c2C(=O)N(C)C)n1
70 to 72 | O=C(OCC=Cc1ccccc1)c1cccc2nnsc12
145 to 147 | COc1ccc2[nH]c(/C=C/C=O)cc2c1
170 to 172 | CN(C)C(=O)n1nc(N)c2ccc(Cl)cc21
104 to 105 | O=C(N[C@H](Cc1ccc(Oc2ccccc2)cc1)[C@@H](O)c1ccc(F)cc1)c1ccc(F)c2ccccc12 (racemic)
144 to 145 | O=C1N[C@H](Cc2ccc(Oc3ccccc3)cc2)[C@H](c2ccc(F)cc2)O1 (racemic)
200 to 202 | CN1CCN(c2nc3sc4c(NCc5ccccn5)ncnc4c3c3c2CCC(C)(C)C3)CC1
68 to 70 | CCCCC(=Nc1sccc1C(=O)NCCC)OC
> 300 | O=c1[nH]c2cc(Cl)cc(Cl)c2c(O)c1Sc1ccc(O)cc1
106 | CCOC(=O)C(Cl)=NNc1ccccc1Br
95 to 99 | O=C(Oc1ccccc1)N1Cc2ccccc2C(c2ccccc2Cl)c2ccccc21 (stereo not drawn)
121 to 122 | CC(=O)c1cc(NS(C)(=O)=O)ccc1O

melting point [°C] | SMILES
105 to 106 | O=C1CCc2cc(OCc3ccccc3)ccc21
100 to 105 | COC(=O)c1c(N)ncn1C1c2ccccc2CC1(C)C (stereo not drawn)
219 to 221 | CC(C)(C)c1ncn(Sc2ncc([N+](=O)[O-])s2)n1
81 to 82 | N[C@@H](Cc1ccc(C(F)(F)F)cc1)[C@H](O)c1cccc(F)c1 (racemic)
154 to 155 | CCCOc1ccc(Br)cc1-c1nc2cc3nc[nH]c3cc2c(=O)[nH]1
> 250 | CCCC1=C(C#N)C(c2cccc(C(F)(F)F)c2Cl)c2c[nH]nc2N1 (stereo not drawn)
72 to 74 | CC(=O)Nc1cccc(-c2cccnc2)c1
179 to 180 | NCC1CCc2[nH]c3ccc(F)c(Cl)c3c2C1 (stereo not drawn)
256 to 258 | Cc1ccnc2c([N+](=O)[O-])cc(Cc3cnc(N)nc3N)cc12
255 | N#CC(C(=O)C(=O)C(C#N)c1ccc(Cl)cc1)c1ccc(Cl)cc1 (stereo not drawn)
311 to 316 | Cc1nnc(-c2ccc3c(c2)c2cc(-c4ccc(Cl)cc4Cl)c(=O)n(C)c2n3C)o1
> 300 | Oc1nc2ccccc2n2c(C(F)(F)F)nnc12
153 to 155 | CCC12CCC(=O)C=C1c1c(cc(OCC(=O)OCC(C)=O)c(Cl)c1Cl)C2 (stereo not drawn)
242 to 245 | O=C1NCC=C2N=CN=C12
78 to 80 | O=C(CN1CCN(C(=O)OCc2ccccc2)CC1)Nc1ccccn1
228 | CCOC(=O)c1cnn(-c2c(Cl)cc(Cl)cc2Cl)c1O
136 to 138 | COc1ccc2cccc(/C(CNC(C)=O)=N/O)c2c1
204 | CCOC(=O)Nc1nn(C)c2cc(OCc3ccccc3)ccc12
179 to 181 | CCOC(=O)c1ncc2[nH]c3cccc(O)c3c2c1COC
134 to 135 | C#Cc1cccc(Nc2ncnc3cc(OCCOC(C)=O)c(OCCOC)cc23)c1
103 | COc1cc(-c2ccc(C3C(CCC(O)c4ccc(F)cc4)C(=O)N3c3ccc(F)cc3)cc2)cc(OC)c1OC (stereo not drawn)
114 to 116 | O=C(O)c1ccc(OCCOc2ccccc2)cc1O
181 to 182 | CCn1nc(OC2COCCC2=O)c(-c2ccc(F)cc2)c1-c1ccc(S(C)(=O)=O)cc1 (stereo not drawn)
151 | Nc1ccc(NC(=O)[C@@H](NC(=O)c2ccc(C(=O)O)cc2)c2ccccc2)cc1
327 to 329 | COc1ccc(C2C3=C(COC3=O)Nc3ccc4ncsc4c32)cc1O (stereo not drawn)

melting point [°C] | SMILES
143 | C#Cc1cnn2c(C(F)F)cc(-c3ccc(Cl)c(C)c3)nc12
236 to 238 | COC(=O)c1cc2n(n1)-c1ccc(Cl)cc1C(c1ccccc1)NC2=O (stereo not drawn)
306 | O=C(O)Cn1c(=O)[nH]c(=O)c2ccc(Cl)cc21
179 to 181 | O=c1c2ccccc2[nH]n1C(c1ccccc1)c1ccccc1
> 280 | CC(C)(C)OC(=O)N1CCC(C2=C(C#N)C(c3ccccc3Cl)c3c[nH]nc3N2)CC1 (stereo not drawn)
67 to 68 | O=C(N1CC2CC(C1)c1ccccc12)C(F)(F)F
273 | Cc1ccnc(P(=O)(O)O)c1
129 to 130 | Cc1cc(CCCCCCCOc2ccc(C(=O)O)cc2)on1
303 to 304 | O=C1NC(=S)NC1=Cc1cc(O)c(O)c(Cl)c1
206 to 207 | CC(=O)Oc1c2c(c3ccccc3c1OC(C)=O)Nc1ccccc1S2
47 to 51 | CC(C)Nc1cccc(C2CN3CCSC3=N2)c1 (stereo not drawn)
175 to 178 | CN1C(=O)[C@@](NC(=O)Nc2cccc(CNc3nnn[nH]3)c2)(C2CCCCC2)N=Cc2ccccc21
140 to 142 | O=C1CCC(N2Cc3c(OCc4ccc(CN5CCC(O)(c6ccccc6)CC5)cc4)cccc3C2=O)C(=O)N1 (stereo not drawn)
64 to 65 | CCOC(=O)N1CCSC1COc1ccccc1OC (single isomer, unassigned; (-))
177 | COc1ccc(NN=C2CCCCC2=O)cc1
42 to 43 | N#CCCCCCCCCNS(=O)(=O)c1cccc(Cl)c1
88 to 89 | CCOC(=O)c1ccc(CCN(C)CCCC(C#N)(C(=O)OC)c2ccc(OC)c(OC)c2)cc1 (stereo not drawn)
180 to 184 | CCCCCCN(CCCCCC)C(=O)COc1cc(C(=O)O)c([N+](=O)[O-])c(C(=O)O)c1
177 to 179 | CS(=O)(=O)c1ccc(-c2c(-c3ccccc3)nc3n2CCS3)cc1
230 | O=C1CCC2(Cc3ccc(Br)cc3)C(=O)N(c3cc(Cl)cc(Cl)c3)C(=O)N12 (stereo not drawn)
253 to 255 | CC(=O)Nc1nn(C)c2c1sc1cc(C)ccc12
91 to 94 | Cc1cc(C)c(C)c(OC(C)(C)C(=O)O)c1
71 to 73 | O=C(Nc1cc(F)c(Cl)nc1C1CCN(CC=Cc2ccc(Cl)cc2)CC1)c1ccnc(Cl)c1
144 to 146 | C#CCNC(=O)Oc1cc(-n2c(=O)cc(C(F)(F)F)n(C)c2=O)c(F)cc1Cl
102 to 104 | CC(C)(C)NC(=O)[C@@H]1[C@@H](Cl)CCN1C(=O)[C@@H](O)[C@H](Cc1ccccc1)NC(=O)[C@H](CC(N)=O)NC(=O)OCc1ccccc1

melting point [°C] | SMILES
166 to 169 | Cn1nc(-c2ccc(S(C)(=O)=O)cc2)c(-c2ccc(F)cc2)c1OCC(=O)c1ccc(F)cc1
164 to 165 | COc1ccc(C(=O)Nc2ccccc2)cc1NCc1cc(Cl)cc(Cl)c1
150 to 153 | COc1cc(OC)c(C(=O)CCCCCl)cc1NS(=O)(=O)c1ccc(C(F)(F)F)cc1
106 | N#CC=Cc1ccc(Br)cc1
122 to 124 | COc1ccc(CNC2(Cc3ccccc3)CCC(=O)CC2)cc1
258 to 262 | CCn1cnc2c(N)nc(Cl)nc21
> 300 | O=c1cc(-c2cccc(OP(=O)(O)O)c2)[nH]c2ccc(N3CCCC3)cc12
217 to 220 | O=C(O)c1ccc(C(=O)C=Cc2ccccc2)cc1
230 | CC(=O)Oc1cc(C)cc(C2(CC#N)N=NC=C2c2cc(NCC(C)OC(C)=O)nc(-c3cccnc3)n2)c1 (stereo not drawn)
71 to 73 | CC(O)C#Cc1cccc(NC(=O)Nc2ncc(C(C)C)s2)c1 (stereo not drawn)
185 to 187 | Cc1cc2c(nc(C)n2CCc2ccccc2)c(N)n1
116 to 117 | CC(C(=O)n1c(=O)oc2ccccc21)C(O)CCCl (stereo not drawn)
197 to 200 | CCOc1nc2c(N)nc3cccnc3c2n1CC1CCOCC1
188 to 189 | N#Cc1c(NC(=O)CO)cccc1NC(=O)CO
161 to 162 | CCCCc1nnc(SCC(=O)OC)n1Cc1ccc(NC(=O)c2ccccc2C(=O)O)cc1
239 | NCC1CCN(CC(=O)Nc2cccc3c2C(=O)c2c-3n[nH]c2-c2ccc(N3CCNCC3)cc2)CC1
260 | COc1ccc2c(O)c(C(=O)N(O)c3ccccc3)cnc2c1
225 | CNC(=S)NCC1=C(n2ccccc2=O)c2cc([N+](=O)[O-])ccc2OC1(C)C
184 to 185 | Cc1ccsc1C=C(O)C(=O)O
132 to 134 | CCOC(=O)C(C)(C)Oc1cccc2c1CC(O)C(SC)C2 (stereo not drawn)
130 to 138 | COc1cccc2c(CCN(CC3CC3)C3COc4c(F)ccc(C(N)=O)c4C3)coc12 (stereo not drawn)
157 to 159 | Cn1c(-c2cccs2)nnc1S(C)(=O)=O

SMILES | melting point [°C]
O=C1OCCN1c1ccc([N+](=O)[O-])c(C(F)(F)F)c1 | 112 to 113
CCCNCCc1cccc(NS(=O)(=O)c2cccc(Cl)c2)c1 | 145 to 148
CP(C)(=O)C(O)C(=O)O (stereo not drawn) | 206 to 208
COC1=CC2=CCC3C(=CCC4(C)C(=O)C(C)CC34)C2(C)CC1 (stereo not drawn) | 124 to 129
O=C(NC1CN2CCC1CC2)c1cccc2nc(-c3ccc(F)cc3)oc12 (stereo not drawn) | 185 to 187
Cc1ccc2c(c1)C(c1ccccc1)=NCc1nnc(CN(C)C)n1-2 | 154 to 156
